Experimental data published in patent US6982273B1, “Compositions and methods containing bioavailable Se-methyl-L-selenocysteine for human and veterinary use” (Sami Labs Ltd., priority 2002, dated 2006).

Legend:
glutathione peroxidase = conditions: selenium-depleted animals; efficiency: Se-methylselenocysteine > dimethyl selenoxide > trimethylselenonium; cited from earlier work
[1] = system: dimethyl-benz(a)anthracene-induced mammary tumor; conditions: 1–2 ppm Se in diet from 1 week before DMBA until sacrifice; order of efficacy: Se-methylselenocysteine > selenite > selenocysteine > dimethyl selenoxide; cited from earlier work
[2] = system: rats with macrophage associated liver injury and endotoxemia; test: Suppression of macrophage associated liver injury and endotoxemia (P. acnes + LPS) in rats; type: in vivo, rat; conditions: Se-methyl-L-selenocysteine 4 mg/kg, composition 2 mg/kg
Description: The composition used consisted of Se-methyl-L-selenocysteine of the parent application to which piperine from black pepper fruit was added such that the animals received a co-administered daily dose of 5 mg of piperine.
Study Design: Male Wistar King A rats (200–250 g) were maintained on a basal pelleted diet and water ad libitum under normal temperature and lighting conditions. All rats received an injection of 40 mg/kg body weight of heat killed Propionibacterium acnes (ATCC 11827), 20 mg/ml suspension in saline via the tail vein on day 1. Seven days later they received an intravenous injection of 350 mcg/kg body weight of lipopolysaccharide (LPS, Difco Laboratories, MI, USA), 200 mcg/ml solution in saline). 5 rats received a daily dose of 4 mg/kg body weight of Se-methyl-L-selenocysteine and 5 rats received 2 mg/kg body weight of the composition of the invention, orally for 3 days in the feed, 4 control rats received no supplementation, prior to induction of liver injury, 4 normal controls were not subjected to liver injury. Serum levels of TNF-α were measured. TNF-α is thought to be the principal mediator of the deleterious effects of LPS.

Row | Structure (SMILES) | ability to restore glutathione peroxidase activity (glutathione peroxidase) | chemopreventive activity (tumor inhibition) [1] | also measured
1 | C[Se]C[C@H](N)C(=O)O [Se-methyl-L-selenocysteine] | fully replete | tumor inhibition | Catalase ([2]; oral 3 days): 31.16 ± 3.95 micromole of H2O2 consumed/min; Glutathione (GSH) ([2]; oral 3 days): 7.43 ± 0.69 mcg/mg protein; Glutathione peroxidase ([2]; oral 3 days): 8.13 ± 0.71 micromole of GSH oxidized/min/; Serum Lipid peroxides ([2]; oral 3 days): 2.71 ± 0.32 MDA formed/mg protein; Superoxide dismutase ([2]; oral 3 days): 4.91 ± 0.48 Units/min/mg protein; TNF-alpha (serum) ([2]; oral 3 days): 81 ± 6 ng/mL; Survival rate ([2]; oral in feed 3 days before injury, survivors/n): 3/5
2 | C[Se](C)=O [dimethyl selenoxide] | fully replete | tumor inhibition | –
3 | O=[Se](O)O [selenite] | – | tumor inhibition | –
4 | N[C@@H](C[SeH])C(=O)O [selenocysteine] | – | tumor inhibition | –
5 | C[Se+](C)C [trimethylselenonium] | fully replete | – | –
